Data as given in patent US10654822B2, “Composition and rodenticidal bait comprising flocoumafen, and process for controlling target rodent pests” (priority 2015, dated 2020).
Where two headings read alike, the source gives them in different places.

Type: in vivo, Sprague-Dawley rats
Settings: mean of three rats, liver
Method: The configurational stereoisomers of flocoumafen are separated by high-pressure liquid chromatography using a LUX® Cellulose-4 chiral column (00F-4490-B0, Phenomenex, Le Pecq, France) as stationary phase and a mixture formed from acetonitrile (A) and water comprising 0.1% by volume of formic acid (B), with an A/B volume ratio of 92/8, as mobile phase with a flow rate of the liquid mobile phase in the chromatography column of 0.25 mL/minute. 1 μL of extract comprising flocoumafen at a concentration of 1 μg/mL of acetonitrile is injected. Detection is performed by tandem mass spectrometry (MS/MS) in negative electrospray ionization (ESI) mode. The temperature of the nebulizer gas is 350° C. and its flow rate is 8 L/minute. The pressure of the nebulizer gas is brought to 2700 hPa. In particular, the MRM (“Multiple Reaction Monitoring”) transitions m/z 541.1→382.1 and m/z 541.1→161, corresponding to the flocoumafen signal, are analysed.
Extraction of Flocoumafen from the Liver of Rats Tube-Fed with Flocoumafen
About 0.525 g (±0.025 g) of rat liver is weighed out accurately and placed in a 50 mL polypropylene tube. 10 mL of acetone are added and the suspension is homogenized using an Ultra-Turrax® homogenizer/disperser for a time of about 30 seconds. The homogenizer/disperser shaft is rinsed with hot water and then twice with 20 mL of acetone in a polypropylene tube. The homogenate is centrifuged for 5 minutes at a centrifugation speed of 3000 rpm (revolutions per minute). The supernatant is collected and transferred into a test tube. The sample is subjected to evaporation under a stream of nitrogen (N2) at a temperature of 40° C. so as to form a dry extract.
1 mL of acetonitrile is added to the tube containing the dry extract so as to dissolve it. The acetonitrile solution is washed twice successively with 1 mL of hexane. The lipid-free extract is dried under a stream of nitrogen (N2) at a temperature of 40° C. and is then taken up in 0.5 mL of methanol and dissolved by vortex stirring. 0.5 mL of ultra-pure (Milli-Q) water is then added. The sample is vortex-homogenized.
1 mL of dichloromethane (CH2Ct2), then 1 mL of methanol (CH3OH), then 1 mL of ultra-pure (Milli-Q) water are passed through an Oasis HLB 1 cc cartridge (WAT094225, Waters). The lipid-free liver extract (1 mL MeOH/Milli-Q H2O) containing flocoumafen is then loaded onto the top of the cartridge beforehand. The liver extract penetrates through the cartridge by gravity on contact with the solid phase of the cartridge. 1 mL of washing solution formed from methanol (CH3OH) and ultra-pure water (H2O) in a 90/10 volume proportion is loaded onto the top of the cartridge. The cartridge is dried by suction under vacuum connected to the bottom of the cartridge. 1 mL of eluting solution formed from dichloromethane (CH2Cl2) and methanol (CH3OH) in a 90/10 volume proportion is then loaded onto the top of the cartridge and an eluate comprising flocoumafen is collected at the bottom of the cartridge. The solvent of the eluate is evaporated off under a stream of nitrogen (N2) at a temperature of 40° C. The sample is taken up in 0.5 mL of acetonitrile (NC—CH3) and the acetonitrile solution containing flocoumafen is filtered through a 0.2 μm porosity filter.
Hepatic Persistence of the Configurational Stereoisomers (E1, E2, E3 and E4) of Flocoumafen in Rats
A solution comprising flocoumafen in a mixture of vegetable oil and 5% of DMSO so that the amount of flocoumafen ingested by each rat is about 2.3 mg per kilogram of rat is administered orally (per os) to 8-week-old male and female laboratory rats (Sprague-Dawley rats, Charles River, Saint-Germain-sur-l'Arbresle, France) weighing between 180 and 200 g. The tube-fed rats are treated daily by subcutaneous administration of a dose of vitamin K1 at a rate of 1 U per rat so as to keep the rats alive throughout the experiment. […]

[1] = female rats, D+1 after oral tube-feeding of flocoumafen about 2.3 mg/kg (mixture of 4 stereoisomers)
[2] = female rats, D+3 after oral tube-feeding of flocoumafen about 2.3 mg/kg (mixture of 4 stereoisomers)
[3] = female rats, D+7 after oral tube-feeding of flocoumafen about 2.3 mg/kg (mixture of 4 stereoisomers)
[4] = male rats, D+1 after oral tube-feeding of flocoumafen about 2.3 mg/kg (mixture of 4 stereoisomers)
[5] = male rats, D+3 after oral tube-feeding of flocoumafen about 2.3 mg/kg (mixture of 4 stereoisomers)
[6] = male rats, D+7 after oral tube-feeding of flocoumafen about 2.3 mg/kg (mixture of 4 stereoisomers)

SMILES: O=c1oc2ccccc2c(O)c1C1CC(c2ccc(OCc3ccc(C(F)(F)F)cc3)cc2)Cc2ccccc21 (single isomer, unassigned) [Enantiomer E1, flocoumafen]
- Hepatic concentration [1]: 4585 ng/g
- Hepatic concentration [2]: 2692 ng/g
- Hepatic concentration [3]: 1196 ng/g
- Hepatic concentration [4]: 196 ng/g
- Hepatic concentration [5]: 47 ng/g
- Hepatic concentration [6]: 0 ng/g

SMILES: O=c1oc2ccccc2c(O)c1C1CC(c2ccc(OCc3ccc(C(F)(F)F)cc3)cc2)Cc2ccccc21 (single isomer, unassigned) [Enantiomer E3, flocoumafen]
- Hepatic concentration [1]: 5478 ng/g
- Hepatic concentration [2]: 2734 ng/g
- Hepatic concentration [3]: 1228 ng/g
- Hepatic concentration [4]: 3301 ng/g
- Hepatic concentration [5]: 1862 ng/g
- Hepatic concentration [6]: 647 ng/g

SMILES: O=c1oc2ccccc2c(O)c1C1CC(c2ccc(OCc3ccc(C(F)(F)F)cc3)cc2)Cc2ccccc21 (single isomer, unassigned) [Enantiomer E4, flocoumafen]
- Hepatic concentration [1]: 10342 ng/g
- Hepatic concentration [2]: 7765 ng/g
- Hepatic concentration [3]: 5054 ng/g
- Hepatic concentration [4]: 8143 ng/g
- Hepatic concentration [5]: 9906 ng/g
- Hepatic concentration [6]: 2623 ng/g

SMILES: O=c1oc2ccccc2c(O)c1C1CC(c2ccc(OCc3ccc(C(F)(F)F)cc3)cc2)Cc2ccccc21 (single isomer, unassigned) [Enantiomer E2, flocoumafen]
- Hepatic concentration [1]: 5396 ng/g
- Hepatic concentration [2]: 2522 ng/g
- Hepatic concentration [3]: 469 ng/g
- Hepatic concentration [4]: 3904 ng/g
- Hepatic concentration [5]: 1962 ng/g
- Hepatic concentration [6]: 319 ng/g
